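Where inhibition never reached the appropriate level, the endpoint shown equals the highest concentration tested. Otherwise, values were interpolated linearly from a five-concentration, 48-hour dose response in 96-well plates. Abbreviation: GI50, concentration required for 50% inhibition of growth. At the TGI there is no net growth.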
How the values were obtained:
Assay in all cases: growth of human tumour cells (NCI), 48 h
MCF7 breast = system: MCF7 breast
SK-MEL-5 melanoma = system: SK-MEL-5 melanoma
HL-60(TB) leukemia = system: HL-60(TB) leukemia
MALME-3M melanoma = system: MALME-3M melanoma
SK-MEL-28 melanoma = system: SK-MEL-28 melanoma
SN12C renal = system: SN12C renal
BT-549 breast = system: BT-549 breast
NCI-H522 lung = system: NCI-H522 lung
TK-10 renal = system: TK-10 renal
HCT-116 colon = system: HCT-116 colon

Compound | GI50 (MCF7 breast) [µM] | TGI (MCF7 breast) [µM] | GI50 (SK-MEL-5 melanoma) [µM] | TGI (SK-MEL-5 melanoma) [µM] | GI50 (HL-60(TB) leukemia) [µM] | TGI (HL-60(TB) leukemia) [µM] | GI50 (MALME-3M melanoma) [µM] | TGI (MALME-3M melanoma) [µM] | GI50 (SK-MEL-28 melanoma) [µM] | TGI (SK-MEL-28 melanoma) [µM] | GI50 (SN12C renal) [µM] | TGI (SN12C renal) [µM] | TGI (BT-549 breast) [µM] | TGI (NCI-H522 lung) [µM] | TGI (TK-10 renal) [µM] | TGI (HCT-116 colon) [µM] | GI50 (BT-549 breast) [µM] | GI50 (NCI-H522 lung) [µM] | GI50 (TK-10 renal) [µM] | GI50 (HCT-116 colon) [µM]
O=C(Cc1csc2nc(-c3ccc(Cl)cc3)cn12)N/N=C/c1ccccc1O | 3.34 | > 100 | 2.93 | > 100 | 1.66 | 8.51 | 5.56 | 94.2 | 5.5 | > 100 | 11 | > 100 | – | – | – | – | – | – | – | –
Cc1n[n+]([O-])c(C)cc1[N+](=O)[O-] | – | 45.6 | – | 29.8 | – | – | – | 35.3 | – | 31.9 | – | 28.1 | 51.5 | 25.6 | 24.5 | 31.6 | – | – | – | –
CC(C)CC1c2[nH]c3ccccc3c2C[C@H]2C(=O)NC(CCCCNC(=O)OC(C)(C)C)C(=O)N12 (stereo not given in full) | – | > 100 | – | > 100 | – | 46.9 | – | 78.5 | – | > 100 | – | 77.4 | 95.5 | 72.3 | > 100 | > 100 | – | – | – | –
COc1ccc(-n2c3c(c4cc(O)ccc42)Cc2ccccc2C3=O)cc1 | – | 79.7 | – | > 100 | – | > 100 | – | > 100 | – | > 100 | – | > 100 | > 100 | – | > 100 | > 100 | – | – | – | –
Cc1cc2ccc(OC(=O)c3ccc(N=C(N)N)cc3)cc2oc1=O | – | 54.9 | – | > 100 | – | 45.8 | – | 60.7 | – | 58.6 | – | 64 | 64.6 | 45.2 | 49.8 | 76.5 | – | – | – | –
Clc1ccc(Nc2nc(Nc3ccccc3)nc(Nc3ccc(-c4cc(-c5ccc(Cl)cc5)on4)cc3)n2)cc1 | 12.2 | > 100 | 24 | > 100 | 51.5 | > 100 | 31.5 | 93 | 40.3 | > 100 | 24.8 | > 100 | > 100 | 36.7 | > 100 | 26.5 | 32.9 | 16.2 | 19.2 | 7.68
COc1cc(C2SCC(=O)N2c2ccc(NC(C)=O)cc2)cc(OC)c1OC (stereo not given) | – | > 100 | – | > 100 | – | > 100 | – | – | – | > 100 | – | > 100 | > 100 | > 100 | > 100 | > 100 | – | – | – | –
O=C(O)C(O)C(O)C(O)C(O)C(=O)O (stereo not given) | – | > 100 | – | > 100 | – | > 100 | – | > 100 | – | > 100 | – | > 100 | – | > 100 | – | > 100 | – | – | – | –
N=c1ccc2nc(N)nn(O)c-2c1 | – | > 100 | – | > 100 | – | > 100 | – | – | – | > 100 | – | > 100 | > 100 | > 100 | > 100 | > 100 | – | – | – | –
CC1(C(=O)O)C[C@](C)(C(=O)OCc2ccccc2)C[C@](C)(C(=O)OCc2ccccc2)C1 (stereo not given in full) | – | > 100 | – | > 100 | – | 53.9 | – | > 100 | – | > 100 | – | > 100 | 65.6 | 60 | > 100 | 57.9 | – | – | – | –
O=C(CC(c1ccccc1)C1C(=O)NC(=S)NC1=O)c1ccc([N+](=O)[O-])cc1 (stereo not given) | – | 37.5 | – | > 100 | – | > 100 | – | > 100 | – | > 100 | – | > 100 | > 100 | > 100 | > 100 | > 100 | – | – | – | –
COc1ccc(-c2nn(-c3ccc(NC(=O)c4cc(Cl)cc(Cl)c4)cc3)cc2-c2ccncc2)cc1Cl | > 100 | > 100 | 8.09 | > 100 | 3.41 | > 100 | – | – | > 100 | > 100 | > 100 | > 100 | – | > 100 | > 100 | > 100 | – | 5.11 | 6.18 | 7
Cc1cc(S(=O)(=O)NC2=NCCN2Cc2ccccc2)c(S)cc1Cl | – | > 100 | – | > 100 | – | > 100 | – | > 100 | – | > 100 | – | > 100 | > 100 | > 100 | > 100 | > 100 | – | – | – | –
CCOC(=O)c1c(-c2cccc(Cl)c2)c(C(=O)OC)c(C)c2sc(C=O)nc12 | – | 35.7 | – | 30.4 | – | 44.9 | – | 38 | – | 34.5 | – | 30.8 | 33.7 | 32.5 | 50 | 21.1 | – | – | – | –
C[N+]1(CCC(=O)c2ccccc2)CCC2CCC(C2)C1 (stereo not given) | – | > 100 | – | > 100 | – | > 100 | – | > 100 | – | > 100 | – | > 100 | > 100 | > 100 | > 100 | > 100 | – | – | – | –
O=C(O)C1CCCCN1C(=O)Cc1c[nH]c2ccccc12 (stereo not given) | – | > 100 | – | – | – | > 100 | – | > 100 | – | > 100 | – | > 100 | > 100 | > 100 | > 100 | > 100 | – | – | – | –
CN(C)C(=O)OC1=CC2CCC(C1)N2C (stereo not given) | – | > 100 | – | > 100 | – | – | – | > 100 | – | > 100 | – | > 100 | > 100 | > 100 | > 100 | > 100 | – | – | – | –

Source: PubChem BioAssay (NCI)
